Our source for the IC50 values is patent US6635771B2, “N-benzhydryl indole compounds” (Wyeth, priority 2001, dated 2003).

pIC50: −log10 of the molar value.

For the assay, the target named is T1, cPLA2 (Homo sapiens, UniProt P47712).
T1 sequence (P47712 1-749): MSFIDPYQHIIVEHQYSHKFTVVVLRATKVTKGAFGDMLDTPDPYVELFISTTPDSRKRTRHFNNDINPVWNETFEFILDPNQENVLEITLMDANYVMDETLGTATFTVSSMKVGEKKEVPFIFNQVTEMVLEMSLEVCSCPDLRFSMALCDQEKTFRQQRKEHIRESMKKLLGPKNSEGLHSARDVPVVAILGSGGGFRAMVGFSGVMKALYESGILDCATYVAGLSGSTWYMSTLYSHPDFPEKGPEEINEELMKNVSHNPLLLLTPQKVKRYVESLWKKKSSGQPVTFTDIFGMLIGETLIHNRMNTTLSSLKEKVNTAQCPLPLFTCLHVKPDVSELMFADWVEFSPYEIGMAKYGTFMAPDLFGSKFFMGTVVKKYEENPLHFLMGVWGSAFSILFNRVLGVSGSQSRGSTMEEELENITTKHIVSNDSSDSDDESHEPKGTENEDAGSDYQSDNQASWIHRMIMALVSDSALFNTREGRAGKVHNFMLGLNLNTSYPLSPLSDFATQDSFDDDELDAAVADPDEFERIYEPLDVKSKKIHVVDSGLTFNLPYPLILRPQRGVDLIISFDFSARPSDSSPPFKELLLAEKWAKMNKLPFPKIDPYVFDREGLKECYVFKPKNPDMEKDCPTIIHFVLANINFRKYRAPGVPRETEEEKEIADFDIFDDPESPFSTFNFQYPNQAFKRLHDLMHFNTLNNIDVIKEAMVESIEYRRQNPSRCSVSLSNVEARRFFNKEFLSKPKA
Put plainly: Coumarine Assay. Type of assay: biochemical. The settings on record: 60 μM 7-hydroxycoumarinyl 6-heptenoate substrate, 4 μg cPLA2, pH 7.5, fluorescence ex 360 nm / em 460 nm; read-out: Coumarin IC50.

What is called pIC50 is −log10 of the IC50, conventionally taken in molar units. Take `O=C(O)CCc1ccc(S(=O)(=O)CCc2c(CCNS(=O)(=O)Cc3ccccc3F)n(C(c3ccccc3)c3ccccc3)c3ccc(Cl)cc23)cc1` [Example 132, 3-[4-({2-[1-benzhydryl-5-chloro-2-(2-{[(2-fluorobenzyl)sulfonyl]amino}ethyl)-1H-indol-3-yl]ethyl}sulfonyl)phenyl] propanoic acid]: the pIC50 is 6.70. For `O=C(O)CCc1ccc(S(=O)(=O)CCc2c(CCNS(=O)(=O)Cc3ccccc3Cl)n(C(c3ccccc3)c3ccccc3)c3ccc(Cl)cc23)cc1` [Example 133, 3-[4-({2-[1-benzhydryl-5-chloro-2-(2-{[(2-chlorobenzyl)sulfonyl]amino}ethyl)-1H-indol-3-yl]ethyl}sulfonyl)phenyl]propanoic acid], the pIC50 was 7.05. As for `O=C(O)c1ccc(CNCc2c(CCNS(=O)(=O)Cc3ccccc3)n(C(c3ccccc3)c3ccccc3)c3ccc(Cl)cc23)cc1` [Example 134, 4-({[(1-benzhydryl-2-{2-[(benzylsulfonyl)amino]ethyl}-5-chloro-1H-indol-3-yl)methyl]amino}methyl)benzoic acid], the pIC50 was less than 6.00. On to `O=C(O)c1ccc(S(=O)(=O)CCc2c(CCNS(=O)(=O)Cc3ccccc3)n(C(c3ccccc3)c3ccccc3)c3ccc(Cl)cc23)cc1` [Example 135], for which the pIC50 was 6.70. In the case of `O=C(O)c1ccc(S(=O)(=O)CCc2c(CCNS(=O)(=O)Cc3ccccc3Cl)n(C(c3ccccc3)c3ccccc3)c3ccc(Cl)cc23)cc1` [Example 136], the pIC50 is 6.74. In the case of `O=C(O)c1ccc(S(=O)(=O)CCc2c(CCNS(=O)(=O)Cc3ccccc3F)n(C(c3ccccc3)c3ccccc3)c3ccc(Cl)cc23)cc1` [Example 138, 4-({2-[1-benzhydryl-5-chloro-2-(2-{[(2-fluorobenzyl)sulfonyl]amino}ethyl)-1H-indol-3-yl]ethyl}sulfonyl)benzoic acid], the pIC50 is 6.70. `O=C(O)c1ccc(OCCc2c(CCNS(=O)(=O)CCN3CCCC3)n(C(c3ccccc3)c3ccccc3)c3ccc(Cl)cc23)cc1` [Example 139, 4-(2-{1-Benzhydryl-5-chloro-2-[2-(2-pyrrolidin-1-yl-ethanesulfonylamino)-ethyl]-1H-indol-3-yl}-ethoxy)-benzoic acid]: the pIC50 is 5.77. As for `O=C(O)c1ccc(S(=O)(=O)CCc2c(CCNS(=O)(=O)Cc3ccc(Cl)c(Cl)c3)n(C(c3ccccc3)c3ccccc3)c3ccc(Cl)cc23)cc1` [Example 140, 4-({2-[1-benzhydryl-5-chloro-2-(2-{[(3,4-dichlorobenzyl)sulfonyl]amino}ethyl)1H-indol-3-yl]ethyl}sulfonyl)benzoic acid], the pIC50 was 6.70. As for `Cc1cccc(C)c1CS(=O)(=O)NCCc1c(CCS(=O)(=O)c2ccc(C(=O)O)cc2)c2cc(Cl)ccc2n1C(c1ccccc1)c1ccccc1` [Example 141, 4-({2-[1-benzhydryl-5-chloro-2-(2-{[(2,6-dimethylbenzyl)sulfonyl]amino}ethyl) 1H-indol-3-yl]ethyl}sulfonyl)benzoic acid], the pIC50 was 6.77.
